According to ChEMBL document CHEMBL3046079, “Synthesis, herbicidal activity, and mode of action of IR 5790” (J Agric Food Chem, 2001):
Activity calls are given as the source filed them.

Columns and labels:
[1] = Toxicity in po dosed Rattus norvegicus (rat); type: organism-based; conditions: in vivo
Cucumis sativus = assay: Induction of photobleaching in Cucumis sativus (cucumber) cotyledon disc at 1 to 100 uM incubated for 20 hr in dark followed by 8 hr in presence of light; type: functional
Abutilon theophrasti [2] = assay: Pre-emergence herbicidal activity against Abutilon theophrasti (velvetleaf) assessed as injury at 50 g/ha applied at 24 hr post-sowing measured after 28 days relative to control; type: functional
Beta vulgaris [3] = assay: Phytotoxicity against Beta vulgaris assessed as injury at 150 g/ha applied as pre-emergent treatment at 24 hr post-sowing measured after 28 days relative to control; type: organism-based; conditions: in vivo, other, 672 h
Triticum aestivum [4] = assay: Phytotoxicity against Triticum aestivum (wheat) assessed as injury at 150 g/ha applied as pre-emergent treatment at 24 hr post-sowing measured after 28 days relative to control; type: organism-based; conditions: in vivo, other, 672 h
Glycine max [5] = assay: Phytotoxicity against Glycine max (soybean) assessed as injury at 150 g/ha applied as pre-emergent treatment at 24 hr post-sowing measured after 28 days relative to control; type: organism-based; conditions: in vivo, other, 672 h
Digitaria sanguinalis = assay: Pre-emergence herbicidal activity against Digitaria sanguinalis (hairy crabgrass) assessed as injury at 150 g/ha applied at 24 hr post-sowing measured after 28 days relative to control; type: functional
Beta vulgaris [6] = assay: Phytotoxicity against Beta vulgaris assessed as injury at 50 g/ha applied as pre-emergent treatment at 24 hr post-sowing measured after 28 days relative to control; type: organism-based; conditions: in vivo, other, 672 h
Phalaris arundinacea = assay: Pre-emergence herbicidal activity against Phalaris arundinacea assessed as injury at 50 g/ha applied at 24 hr post-sowing measured after 28 days relative to control; type: functional
Alopecurus myosuroides = assay: Pre-emergence herbicidal activity against Alopecurus myosuroides assessed as injury at 50 g/ha applied at 24 hr post-sowing measured after 28 days relative to control; type: functional
Ammi majus = assay: Post-emergence herbicidal activity against Amni maius assessed as injury at 150 g/ha applied at 15 days post-sowing measured after 15 days relative to control; type: functional
Abutilon theophrasti [7] = assay: Post-emergence herbicidal activity against Abutilon theophrasti (velvetleaf) assessed as injury at 150 g/ha applied at 15 days post-sowing measured after 15 days relative to control; type: functional
Panicum dichotomiflorum = assay: Post-emergence herbicidal activity against Panicum dichotomiflorum assessed as injury at 150 g/ha applied at 15 days post-sowing measured after 15 days relative to control; type: functional
Veronica persica [8] = assay: Post-emergence herbicidal activity against Veronica persica assessed as injury at 150 g/ha applied at 15 days post-sowing measured after 15 days relative to control; type: functional
Ipomoea purpurea = assay: Post-emergence herbicidal activity against Ipomoea purpurea (common morning-glory) assessed as injury at 150 g/ha applied at 15 days post-sowing measured after 15 days relative to control; type: functional
Galium aparine [9] = assay: Post-emergence herbicidal activity against Galium aparine assessed as injury at 150 g/ha applied at 15 days post-sowing measured after 15 days relative to control; type: functional
Abutilon theophrasti [10] = assay: Post-emergence herbicidal activity against Abutilon theophrasti (velvetleaf) assessed as injury at 50 g/ha applied at 15 days post-sowing measured after 15 days relative to control; type: functional
Glycine max [11] = assay: Phytotoxicity against Glycine max (soybean) assessed as injury at 150 g/ha applied as post-emergent treatment at 15 days post-sowing measured after 15 days relative to control; type: organism-based; conditions: in vivo, other, 360 h
Triticum aestivum [12] = assay: Phytotoxicity against Triticum aestivum (wheat) assessed as injury at 5 g/ha applied as post-emergent treatment at 15 days post-sowing measured after 15 days relative to control; type: organism-based; conditions: in vivo, other, 360 h
Persicaria maculosa [13] = assay: Post-emergence herbicidal activity against Persicaria maculosa assessed as injury at 5 g/ha applied at 15 days post-sowing measured after 15 days relative to control; type: functional
Triticum aestivum [14] = assay: Phytotoxicity against Triticum aestivum (wheat) assessed as injury at 15 g/ha applied as post-emergent treatment at 15 days post-sowing measured after 15 days relative to control; type: organism-based; conditions: in vivo, other, 360 h
Oryza sativa [15] = assay: Phytotoxicity against Oryza sativa (rice) assessed as injury at 15 g/ha applied as post-emergent treatment at 15 days post-sowing measured after 15 days relative to control; type: organism-based; conditions: in vivo, other, 360 h
Avena fatua = assay: Post-emergence herbicidal activity against Avena fatua assessed as injury at 15 g/ha applied at 15 days post-sowing measured after 15 days relative to control; type: functional
Stellaria media = assay: Post-emergence herbicidal activity against Stellaria media assessed as injury at 15 g/ha applied at 15 days post-sowing measured after 15 days relative to control; type: functional
Xanthium strumarium = assay: Pre-emergence herbicidal activity against Xanthium strumarium (cocklebur) assessed as injury at 150 g/ha applied at 24 hr post-sowing measured after 28 days relative to control; type: functional
Persicaria maculosa [16] = assay: Pre-emergence herbicidal activity against Persicaria maculosa assessed as injury at 150 g/ha applied at 24 hr post-sowing measured after 28 days relative to control; type: functional
Papaver rhoeas = assay: Pre-emergence herbicidal activity against Papaver rhoeas assessed as injury at 150 g/ha applied at 24 hr post-sowing measured after 28 days relative to control; type: functional
Galium aparine [17] = assay: Pre-emergence herbicidal activity against Galium aparine assessed as injury at 150 g/ha applied at 24 hr post-sowing measured after 28 days relative to control; type: functional
Calystegia sepium [18] = assay: Pre-emergence herbicidal activity against Calystegia sepium assessed as injury at 150 g/ha applied at 24 hr post-sowing measured after 28 days relative to control; type: functional
Oryza sativa [19] = assay: Phytotoxicity against Oryza sativa (rice) assessed as injury at 50 g/ha applied as post-emergent treatment at 15 days post-sowing measured after 15 days relative to control; type: organism-based; conditions: in vivo, other, 360 h
Zea mays = assay: Phytotoxicity against Zea mays (maize) assessed as injury at 50 g/ha applied as post-emergent treatment at 15 days post-sowing measured after 15 days relative to control; type: organism-based; conditions: in vivo, other, 360 h
Sorghum bicolor = assay: Post-emergence herbicidal activity against Sorghum bicolor assessed as injury at 50 g/ha applied at 15 days post-sowing measured after 15 days relative to control; type: functional
Gossypium hirsutum = assay: Phytotoxicity against Gossypium hirsutum (cotton) assessed as injury at 50 g/ha applied as post-emergent treatment at 15 days post-sowing measured after 15 days relative to control; type: organism-based; conditions: in vivo, other, 360 h
Veronica persica [20] = assay: Post-emergence herbicidal activity against Veronica persica assessed as injury at 50 g/ha applied at 15 days post-sowing measured after 15 days relative to control; type: functional
Solanum nigrum = assay: Post-emergence herbicidal activity against Solanum nigrum (black nightshade) assessed as injury at 50 g/ha applied at 15 days post-sowing measured after 15 days relative to control; type: functional
Portulaca oleracea = assay: Post-emergence herbicidal activity against Portulaca oleracea assessed as injury at 50 g/ha applied at 15 days post-sowing measured after 15 days relative to control; type: functional
Calystegia sepium [21] = assay: Post-emergence herbicidal activity against Calystegia sepium assessed as injury at 50 g/ha applied at 15 days post-sowing measured after 15 days relative to control; type: functional

C#CCOc1cc(-n2nc(C(C)(C)C)sc2=O)c(Cl)cc1Cl
70%: Activity (Abutilon theophrasti [10]) | Activity (Calystegia sepium [21])
inactive: Activity (Cucumis sativus)
90%: Activity (Digitaria sanguinalis) | Activity (Abutilon theophrasti [7]) | Activity (Panicum dichotomiflorum) | Activity (Ipomoea purpurea) | Activity (Papaver rhoeas) | Activity (Solanum nigrum) | Activity (Portulaca oleracea)
0%: Activity (Abutilon theophrasti [2]) | Activity (Triticum aestivum [4]) | Activity (Glycine max [5]) | Activity (Phalaris arundinacea) | Activity (Triticum aestivum [12]) | Activity (Triticum aestivum [14]) | Activity (Oryza sativa [15]) | Activity (Avena fatua) | Activity (Stellaria media) | Activity (Xanthium strumarium) | Activity (Galium aparine [17]) | Activity (Calystegia sepium [18]) | Activity (Oryza sativa [19]) | Activity (Zea mays) | Activity (Sorghum bicolor) | Activity (Veronica persica [20])
50%: Activity (Veronica persica [8]) | Activity (Galium aparine [9]) | Activity (Persicaria maculosa [16])
> 4000 mg/kg: LD50 [1]
10%: Activity (Beta vulgaris [3]) | Activity (Beta vulgaris [6]) | Activity (Alopecurus myosuroides) | Activity (Ammi majus)
30%: Activity (Glycine max [11]) | Activity (Persicaria maculosa [13]) | Activity (Gossypium hirsutum)
